Assays:
[1] = system: Gastric lesions induced by 80% ethanol; assay: Gastric lesions induced by ethanol (ulcer index by severity scores); type: in vivo, Albino Wistar rats; details: Rattus norvegicus, po, vs 80% EtOH group, read-out: Gastric lesions induced by 80% ethanol, % change; for inhibition in vivo at 12.5 mg/kg: compound 12.5 mg/kg; for inhibition in vivo at 25 mg/kg: compound 25 mg/kg; for inhibition in vivo at 50 mg/kg: compound 50 mg/kg
Method: Albino Wistar rats of either sex, approximately the same age, weighing 150 to 200 g and fed on a diet of standard chow were used in this study. They were randomly divided into experimental groups of six rats each. Compounds (N-1 to N-18) 12.5, 25, and 50 mg/kg were given orally in the anti-ulcer studies and intraperitoneally for gastric secretion evaluation. The rats were sacrificed, and the stomachs removed and opened along the greater curvature, After washing with saline, the gastric lesions were quantified by a person unaware of the treatments. The animal study protocol was approved by the Research and Ethics Committee of the Experimental Animal Care Society, College of Pharmacy, King Saud University, Riyadh, Saudi Arabia.
Gastric lesions induced by ethanol: Albino rats of either sex weighing between (150-200 g) are divided into groups. The animals were fasted for 24 hours with free access to water. Animals were given test drugs or standard drug. One hour later 1 mL/200 gm of 80% ethanol is administered orally to each animal. The animals were anaesthetized 1 hour latter with anesthetic ether and stomach was incised along the greater curvature and ulceration was scored. The number of ulcers and the length of each ulcer were measured. Ulcer index was calculated using severity scores. The mucosal damage was examined by means of a magnifying glass. For each stomach the mucosal damage was assessed according to the following scoring system: 0.5 redness; 1.0 spot ulcers; 1.5 hemorrhagic streaks; 2.0 ulcers<3, but≦5; 3.0 ulcers>5. Table 1 provides the effect of compounds on gastric lesions induced by 80% ethanol (mean±SE).

Structure (SMILES) | inhibition in vivo at 12.5 mg/kg [1] [%] | inhibition in vivo at 25 mg/kg [1] [%] | inhibition in vivo at 50 mg/kg [1] [%] | melting point [°C]
O=C1NC=C(C(=O)c2ccc(N3CCCCC3)cc2)C(c2cccc(O)c2)N1 (centres unmarked) [Compound N-10, 4-(3-Hydroxyphenyl)-5-[4-(piperidin-1-yl)benzoyl]-3,4-dihydropyrimidin-2(1H)-one] | 14 | 17.8 | 21.4 | 190 to 192
COc1cc(OC)c(C2NC(=O)NC=C2C(=O)c2ccc(N3CCCCC3)cc2)cc1OC (centres unmarked) [Compound N-14, 4-(2,4,5-Trimethoxyphenyl)-5-[4-(piperidin-1-yl)benzoyl]-3,4-dihydropyrimiden-2(1H)-one] | 10.3 | 27.5 | 37.9 | 155 to 157
O=C1NC=C(C(=O)c2ccc(N3CCCCC3)cc2)C(c2ccc(Cl)cc2Cl)N1 (centres unmarked) [Compound N-6, 4-(2,4-Dichlorophenyl)-5-[4-(piperidin-1-yl)benzoyl]-3,4-dihydropyrimidin-2(1H)-one] |  | 7.1 | 10.7 | 195 to 197
COc1ccc(C2NC(=O)NC=C2C(=O)c2ccc(N3CCCCC3)cc2)cc1OC (centres unmarked) [Compound N-7, 4-(3,4-Dimethoxyphenyl)-5-[4-(piperidin-1-yl)benzoyl]-3,4-dihydropyrimidin-2(1H)-one] | 10 | 26.6 | 33.3 | 145 to 147
O=C1NC=C(C(=O)c2ccc(N3CCCCC3)cc2)C(c2ccccc2)N1 (centres unmarked) [Compound N-1, 4-Phenyl-5-[4-(piperidin-1-yl)benzoyl]-3,4-dihydropyrimidin-2(1H)-one] |  |  |  | 220 to 222
O=C1NC=C(C(=O)c2ccc(N3CCCCC3)cc2)C(c2cccc([N+](=O)[O-])c2)N1 (centres unmarked) [Compound N-4, 4-(3-Nitrophenyl)-5-[4-(piperidin-1-yl)benzoyl]-3,4-dihydropyrimidin-2(1H)-one] |  |  | 7.4 | 185 to 187
O=C1NC=C(C(=O)c2ccc(N3CCCCC3)cc2)C(c2ccc(Cl)cc2)N1 (centres unmarked) [Compound N-5, 4-(4-Chlorophenyl)-5-[4-(piperidin-1-yl)benzoyl]-3,4-dihydropyrimidin-2(1H)-one] |  | 7.1 | 10.7 | 230 to 232
O=C1NC=C(C(=O)c2ccc(N3CCCCC3)cc2)C(c2ccccc2[N+](=O)[O-])N1 (centres unmarked) [Compound N-2, 4-(2-Nitrophenyl)-5-[4-(piperidin-1-yl)benzoyl]-3,4-dihydropyrimidine-2(1H)-one] | 14.2 | 21.4 | 28.5 | 190 to 192
COc1cc(C2NC(=O)NC=C2C(=O)c2ccc(N3CCCCC3)cc2)cc(OC)c1OC (centres unmarked) [Compound N-16, 4-(3,4,5-Trimethoxyphenyl)-5-[4-(piperidin-1-yl)benzoyl]-3,4-dihydropyrimidin-2(1H)-one] | 7.1 | 17.8 | 21.4 | 135 to 137
COc1cccc(C2NC(=O)NC=C2C(=O)c2ccc(N3CCCCC3)cc2)c1 (centres unmarked) [Compound N-12, 4-(3-Methoxyphenyl)-5-[4-(piperidin-1-yl)benzoyl]-3,4-dihydropyrimidin-2(1H)-one] |  | 7.1 | 10.7 | 160 to 162
CCOc1ccc(C2NC(=O)NC=C2C(=O)c2ccc(N3CCCCC3)cc2)cc1 (centres unmarked) [Compound N-13, 4-(4-Ethoxyphenyl)-5-[4-(piperidin-1-yl)benzoyl]-3,4-dihydropyrimidin-2(1H)-one] |  | 7.1 | 14.2 | 200 to 202
COc1cc(OC)c(C2NC(=O)NC=C2C(=O)c2ccc(N3CCCCC3)cc2)c(OC)c1 (centres unmarked) [Compound N-17, 4-(2,4,6-Trimethoxyphenyl)-5-[4-(piperidin-1-yl)benzoyl]-3,4-dihydropyrimidin-2(1H)-one] |  | 27.5 | 37.9 | 140 to 142
